Assay results taken from patent US20120100188A1, “SOLID STATE FORMS OF PALIPERIDONE SALTS AND PROCESS FOR THE PREPARATION THEREOF” (Actavis Group PTC ehf, priority 2009, published 2012).

Experiments:
Type in all cases: physicochemical
[1] = Solubility test of paliperidone and its salts in methanol (100 mg of sample); conditions: 100 mg of sample used
Protocol: (§1) The solubility data of paliperidone and solid state forms of paliperidone salts is furnished in the below table. The 100 mg of sample was used for solubility test.

[2] = Stability of the solid state form (as stated, no test data); conditions: room temperature, enhanced temperature, relative high humidities, aqueous media
From the text: In one embodiment, the process disclosed herein provides stable solid state forms of paliperidone salts. The term “stable solid state form” refers to stability of the solid state form under the standard temperature and humidity conditions of testing of pharmaceutical products, wherein the stability is indicated by preservation of the original polymorphic form.

[3] = Solubility test of paliperidone and its salts in water (100 mg of sample); conditions: 100 mg of sample used
Protocol: as §1

| Solubility Methanol [1] | Solubility Water [3] | Structure (SMILES) | Stability of solid state form [2] |
| --- | --- | --- | --- |
| Insoluble | – | Cc1nc2n(c(=O)c1CCN1CCC(c3noc4cc(F)ccc34)CC1)CCCC2O.O=C(O)/C=C/C(=O)O (stereo not shown) | stable at room temperature, enhanced temperature, at relative high humidities, and in aqueous media |
| Insoluble | Insoluble | Cc1nc2n(c(=O)c1CCN1CCC(c3noc4cc(F)ccc34)CC1)CCCC2O (racemic) [Paliperidone, (±)-3-[2-[4-(6-fluoro-1,2-benzisoxazol-3-yl)-1-piperidinyl]ethyl]-6,7,8,9-tetrahydro-9-hydroxy-2-methyl-4H-pyrido[1,2-a]pyrimidin-4-one] | – |
